Assay results published in US20090042983A1, “Use of L-carnitine for the treatment of cardiovascular diseases” (Sigma-Tau Industrie Farmaceutiche Riunite S.p.A., priority 2003, published 2009).

Legend:
perfused heart = settings: cited from earlier work
[1] = system: patients affected by anterior acute myocardial infarction; settings: cited from earlier work
[2] = system: patients with acute myocardial infarction; experiment: Multicentre double-blind placebo-controlled randomised clinical trial of L-carnitine on mortality (Example 1); format: in vivo, human
Procedure: A clinical trial was conducted in order to evaluate the effect of the administration of L-carnitine on the incidence of mortality and heart failure in the short and long term in patients with acute myocardial infarction. The acute myocardial infarction has not localized within a specific region of the organ but it could be located anywhere in the heart. The trial design was that of a multicentre, parallel-group, double-blind, placebo-controlled, randomised trial.
A total of 2,296 male and female patients aged below 80 years were recruited. The study compound, L-carnitine, was administered at a dose of 9 g/day i.v. for the first 5 days and 4 g/day by mouth from day 6 to day 180.
Concomitant therapies were given according to the procedures adopted in local clinical practice.
The efficacy endpoints of the trial consisted in the reduction of mortality and heart failure.
• Typical chest pain lasting>30 minutes, not resolved by the oral or intravenous administration of nitrates; • ECG with ST segment deviation≧0.2 mV in D, and aVL and/or in two or more contiguous precordial leads; • Time interval elapsing from onset of symptoms to trial randomisation<12 hours; • Age<80 years; • Written informed consent.
• Pregnancy or breast-feeding; • Haemodynamically significant valvulopathy; • Hypertrophic or dilated cardiomyopathy; • Congenital heart disease; • Clinically severe liver or kidney disease; • Alcohol abuse; • Other diseases associated with a poor life expectancy; • Conditions making poor compliance with treatment and/or periodic visits likely; • Inclusion in another trial.

cardiac ischaemia = settings: dogs, cardiac ischaemia model; cited from earlier work
[3] = system: patients with acute myocardial infarction; settings: 3 grams every 8 hours (9 grams a day) intravenous for 48 hours; symptoms within 8 hours; 351 patients; cited from earlier work
[4] = system: acute myocardial infarction; settings: 40 mg/kg/day (2.8 g/day); cited from earlier work

SMILES | lactate levels (perfused heart) | postischemic cardiac contraction amplitude (perfused heart) | release of LDH (perfused heart) | reserve of high-energy phosphate (perfused heart) | coronary flow (perfused heart; postischemic) | left ventricular dilation in the first year after infarction ([1]; anterior acute myocardial infarction) | deaths during the hospitalisation period ([1]; treated group, L-carnitine within 24 hours from onset of chest pain, 14 in control group, 472 patients in total) | NUMBER OF DEATHS AT: 1 mos ([2]; 9 g/day i.v. first 5 days, 4 g/day by mouth day 6 to 180, at 1 mos) | NUMBER OF DEATHS AT: 2 mos ([2]; 9 g/day i.v. first 5 days, 4 g/day by mouth day 6 to 180, at 2 mos) | NUMBER OF DEATHS AT: 6 mos ([2]; 9 g/day i.v. first 5 days, 4 g/day by mouth day 6 to 180, at 6 mos) | NUMBER OF DEATHS AT: 12 mos ([2]; 9 g/day i.v. first 5 days, 4 g/day by mouth day 6 to 180, at 12 mos) | RR (Relative Risk) of death at 1 mos ([2]; L-carnitine vs placebo, at 1 mos) | RR (Relative Risk) of death at 2 mos ([2]; L-carnitine vs placebo, at 2 mos) | RR (Relative Risk) of death at 6 mos ([2]; L-carnitine vs placebo, at 6 mos) | RR (Relative Risk) of death at 12 mos ([2]; L-carnitine vs placebo, at 12 mos) | reduction in deaths at the other observation times ([2]; vs placebo, 3 and 7 days, 1, 2, 6, 12 mos) | reduction in deaths after 5 days' treatment ([2]; vs placebo, after 5 days' treatment (P<0.05)) | cardiac lipid metabolism (cardiac ischaemia) | mortality vs control group at 7 days after the start of treatment [3] | difference between patients treated within 4 hours and more than 4 hours after onset of infarct symptoms [4]
C[N+](C)(C)C[C@H](O)CC(=O)[O-].O=C(O)/C=C/C(=O)O [L-carnitine fumarate] | lower lactate levels | greater | reduced release of LDH | higher reserve of high-energy phosphate | greater |  |  |  |  |  |  |  |  |  |  |  |  |  |  | 
C[N+](C)(C)C[C@H](O)CC(=O)[O-] [L-carnitine] |  |  |  |  |  | significant attenuation of left ventricular dilation | 11 | 45 | 53 | 64 | 67 | 0.78 | 0.81 | 0.86 | 0.89 | significant reductions | statistically significant reduction in deaths | active in improving cardiac lipid metabolism | no significant difference | no significant difference
